Results from ChEMBL document CHEMBL1201862, “PubChem BioAssay data set” (2004).
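Following 48 hours of exposure in 96-well plates, responses at five concentrations were used to interpolate endpoints linearly. The concentration for 50% growth inhibition is given as GI50.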 Activity calls are given as the source filed them. Cut-off read from the data, not from the text of the source: active = GI50 up to about 1.1 µM and inactive = higher.

How the values were obtained:
Test in all cases: NCI-60 cell line screen, 48 h
SK-OV-3 = test system: SK-OV-3
NCI-H460 = test system: NCI-H460
U-251 = test system: U-251
PC-3 = test system: PC-3
NCI-H522 = test system: NCI-H522
BT-549 = test system: BT-549
SK-MEL-5 = test system: SK-MEL-5
EKVX = test system: EKVX
COLO 205 = test system: COLO 205
HL-60 = test system: HL-60
A498 = test system: A498
OVCAR-4 = test system: OVCAR-4
NCI-H226 = test system: NCI-H226
DU-145 = test system: DU-145
RPMI-8226 = test system: RPMI-8226
786-0 = test system: 786-0
Hs-578T = test system: Hs-578T
HOP-62 = test system: HOP-62
HCC 2998 = test system: HCC 2998

Measured: GI50

COC(=O)c1c(C)c2c(c(C)c1C(=O)OC)-c1c(C)ccc3ccc(C)c-2c13
inactive: SK-OV-3 > 74.8 µM | NCI-H460 18.6 µM | U-251 58.9 µM | PC-3 28.7 µM | NCI-H522 31.2 µM | BT-549 > 100 µM | SK-MEL-5 13.1 µM | EKVX 66.4 µM | COLO 205 34.4 µM | HL-60 5.08 µM | A498 > 72.6 µM | OVCAR-4 > 68.5 µM | NCI-H226 > 100 µM | DU-145 > 100 µM | RPMI-8226 7.28 µM | 786-0 19.1 µM | Hs-578T 23.7 µM | HOP-62 > 100 µM

CC(C)=CCOc1cc(NC(=S)c2ccoc2C)ccc1Cl [UC 781]
inactive: SK-OV-3 > 100 µM | NCI-H460 > 100 µM | U-251 48.5 µM | PC-3 > 100 µM | NCI-H522 > 100 µM | BT-549 > 100 µM | SK-MEL-5 > 100 µM | EKVX > 100 µM | COLO 205 > 100 µM | A498 > 100 µM | OVCAR-4 > 100 µM | NCI-H226 57.4 µM | DU-145 > 100 µM | RPMI-8226 > 100 µM | 786-0 > 100 µM | HCC 2998 > 100 µM | Hs-578T 48.6 µM | HOP-62 84.1 µM

CCC1(CC)C(=O)CC[C@@]2(C)C1=CC[C@H]1[C@@H]3CC[C@H](O)[C@@]3(C)CC[C@@H]12
inactive: SK-OV-3 46.1 µM | NCI-H460 16.3 µM | U-251 18.1 µM | PC-3 30.3 µM | NCI-H522 19.8 µM | BT-549 > 100 µM | SK-MEL-5 47.3 µM | EKVX 28.5 µM | COLO 205 28 µM | HL-60 18.6 µM | A498 23.8 µM | OVCAR-4 34.8 µM | NCI-H226 29 µM | DU-145 33.8 µM | RPMI-8226 12.1 µM | 786-0 15.5 µM | Hs-578T 24.4 µM | HOP-62 19.1 µM

C=C1C2CCC3(CCC4C5(C)CCCC4(C=[N+](CCO)C5)C3C2)C1O (configuration not stated)
inactive: SK-OV-3 > 100 µM | NCI-H460 > 100 µM | U-251 > 100 µM | PC-3 > 100 µM | NCI-H522 > 100 µM | BT-549 > 100 µM | SK-MEL-5 > 100 µM | EKVX > 100 µM | COLO 205 > 100 µM | HL-60 > 100 µM | A498 > 100 µM | OVCAR-4 > 100 µM | DU-145 > 100 µM | RPMI-8226 > 100 µM | 786-0 > 100 µM | HCC 2998 > 100 µM | Hs-578T > 100 µM | HOP-62 > 100 µM

O=C(NNC(=S)Nc1ccc(Br)cc1)c1cc(-c2ccccc2)nc2ccccc12
inactive: SK-OV-3 25.2 µM | NCI-H460 20.8 µM | U-251 16.2 µM | PC-3 20.1 µM | NCI-H522 22.2 µM | BT-549 24.5 µM | SK-MEL-5 15.8 µM | COLO 205 22.6 µM | A498 13.8 µM | OVCAR-4 19.8 µM | NCI-H226 24.3 µM | DU-145 19.9 µM | RPMI-8226 14.3 µM | 786-0 19 µM | HCC 2998 16.8 µM | Hs-578T 30.2 µM | HOP-62 20 µM

OC1CSCCCSCCSCCCSC1
inactive: SK-OV-3 > 100 µM | NCI-H460 > 100 µM | U-251 > 100 µM | PC-3 > 100 µM | NCI-H522 > 100 µM | BT-549 > 100 µM | SK-MEL-5 > 100 µM | EKVX > 100 µM | COLO 205 > 100 µM | A498 > 100 µM | OVCAR-4 > 100 µM | NCI-H226 > 100 µM | DU-145 > 100 µM | RPMI-8226 37.6 µM | 786-0 > 100 µM | HCC 2998 > 100 µM | Hs-578T > 100 µM | HOP-62 > 100 µM

O=c1cc2oc3ccc4ccccc4c3cc-2c(=O)[nH]1
inactive: SK-OV-3 20.3 µM | NCI-H460 22.9 µM | U-251 10.2 µM | PC-3 10.6 µM | NCI-H522 9.12 µM | BT-549 1.34 µM | SK-MEL-5 15.5 µM | EKVX 18 µM | COLO 205 15.3 µM | HL-60 1.51 µM | A498 16.1 µM | OVCAR-4 22.3 µM | DU-145 13.6 µM | RPMI-8226 2.96 µM | 786-0 13.8 µM | HCC 2998 16.9 µM | Hs-578T 24.4 µM | HOP-62 10.8 µM

O=C(/C=C/c1ccc(O)cc1)NCCc1ccc(O)cc1 [N-P-COUMAROYL TYRAMINE]
inactive: NCI-H460 11.2 µM | U-251 > 12.5 µM | PC-3 8.57 µM | NCI-H522 3.38 µM | BT-549 7.53 µM | SK-MEL-5 > 12.5 µM | EKVX 3.05 µM | COLO 205 > 12.5 µM | HL-60 3.58 µM | A498 > 12.5 µM | OVCAR-4 8.63 µM | NCI-H226 > 12.5 µM | DU-145 12 µM | RPMI-8226 6.95 µM | 786-0 > 12.5 µM | Hs-578T > 12.5 µM | HOP-62 > 12.5 µM

O=C(O)c1cccc(/[As]=[As]\c2cccc(C(=O)O)c2)c1 (configuration not stated)
inactive: NCI-H460 36 µM | U-251 15.7 µM | PC-3 16.9 µM | NCI-H522 17.9 µM | BT-549 70.6 µM | SK-MEL-5 32.7 µM | EKVX 59.8 µM | COLO 205 33 µM | A498 28 µM | OVCAR-4 51.9 µM | NCI-H226 84.9 µM | DU-145 86.5 µM | RPMI-8226 23 µM | 786-0 24.8 µM | HCC 2998 57.7 µM | Hs-578T 33.8 µM | HOP-62 35.2 µM

C[C@]12CC[C@@H]3c4cc(Br)c(O)c(Br)c4CC[C@H]3[C@@H]1CCC2=O
inactive: SK-OV-3 31.4 µM | NCI-H460 21.4 µM | U-251 16.6 µM | PC-3 30.8 µM | BT-549 23.8 µM | EKVX 25.5 µM | COLO 205 > 100 µM | HL-60 26.2 µM | A498 40.9 µM | OVCAR-4 13.3 µM | NCI-H226 7.87 µM | DU-145 39.6 µM | 786-0 19.7 µM | HCC 2998 13.9 µM | Hs-578T 21.9 µM

CC(C)(O)C1CC(=O)C(C)(C2C(O)CC3(C)C4CC=C5C(CCC(O)C5(C)C)C4(C)C(=O)CC23C)O1 (configuration not stated)
inactive: SK-OV-3 > 100 µM | NCI-H460 > 100 µM | U-251 > 100 µM | PC-3 > 100 µM | NCI-H522 > 100 µM | BT-549 > 100 µM | SK-MEL-5 > 100 µM | EKVX > 100 µM | COLO 205 > 100 µM | A498 > 100 µM | OVCAR-4 > 100 µM | NCI-H226 > 100 µM | DU-145 > 100 µM | RPMI-8226 > 100 µM | 786-0 > 100 µM | HCC 2998 > 100 µM | Hs-578T > 100 µM | HOP-62 > 100 µM
